# Article PMC8625357, “Metabolism of Selected 2-Arylbenzofurans in a Colon In Vitro Model System” (Foods, 2021)
# Several values for one entry are separate records, joined by “and”; a condition that tells them apart may be missing. Equal entries are not always repeated.
# How the values were obtained:
# [1] = test system: THP-1 human monocytic leukemic cell line; design: method as in PMID 24901948; details: read-out: cytotoxic activity; cited from earlier work
# human fecal microbiota = test: In vitro batch fermentation with human fecal microbiota; format: in vitro ADME; design: final concentration after 8 h of fermentation: reference not given here; details: for bacterial metabolites detected: feces from three donors, 8 h
# Experimental: Using a batch fermentation model of the human colon, 2-arylbenzofurans were incubated after the addition of human fecal bacteria from three donors. Samples were collected at 0, 2, 4, and 8 h and the effect of microbiota on tested 2-arylbenzofurans was determined by UHPLC/MS HRAM.
# Medium was prepared from 225 mL of distilled water, 112.5 mL of macromineral solution, 56.25 μL of micromineral solution, 562.5 μL of 0.1% resazurin solution, and 1.125 g of tryptone. The macromineral solution was prepared from 7.14 g of Na2HPO4, 6.2 g of KH2PO4, 0.6 g of MgSO4, and up to 1 L of distilled water. The micromineral solution was made of 2.64 g of CaCl2, 2 g of MnCl2, CoCl2, 1.6 g of FeCl3, and up to 20 mL of distilled water. CO3 buffer was created by mixing 1 g of NH4HCO3, 8.75 g of NaHCO3, and distilled water up to 250 mL.
# Phosphate buffer for fecal slurries was created by dissolving 1.77 g of KH2PO4 in 195 mL of distilled water and 3.62 g of Na2HPO4 in 305 mL of distilled water (both 1/15M). The acidity of the mixed phosphate buffer was adjusted to a neutral pH by hydrochloric acid. The reducing solution was created by mixing 125 mg of cysteine hydrochloride, 125 mg of Na2S, 0.8 mL of 1M NaOH, and distilled water up to 20 mL.
# Mulberrofuran Y (1), moracin C (2), and mulberrofuran G (3) were dissolved in DMSO to a final concentration of 10 mg/mL. After boiling the fermentation medium and sodium phosphate buffer, both were cooled to 37 °C. To remove oxygen, the samples were purged with nitrogen gas (approximately 30 min). The pH of the medium was equilibrated to neutral pH using HCl. For each fermentation bottle, 17.18 mL of fermentation medium and 0.8 mL of reducing solution were transferred to create fermentation vials. Fecal slurry was prepared immediately after sampling from each donor by homogenizing the collected feces in a stomacher bag with phosphate buffer to produce a 25% fecal slurry. After filtration through the mesh, 2 mL of the filtered fecal slurry were added to each fermentation bottle. Finally, 20 μL of the tested compound or DMSO as a negative control were added. The bottles were incubated at 37 °C for 8 h with stirring at 100 strokes per minute. Aliquots of fecal suspensions were collected at 0, 2, 4, and 8 h, and stored at −80 °C until further analysis.
# First, 400 μL sample of supernatant fluid were defrosted and centrifuged (5 min/15,000 RPM) and the pellet was erased. Supernatant was combined with 20 μL of ^13C6 trans-resveratrol in methanol (2 μg/mL), which was used as an internal standard. Samples were extracted 3 times with 2.5 mL of ethyl acetate and 2 mL of ultra-pure water. After liquid-liquid extraction, ethyl acetate was evaporated with nitrogen gas and redissolved in 1 mL of methanol (VWR Chemicals, Stribrna Skalice, Czech Republic) in combination with formic acid (Fisher Scientific, Merelbeke, Belgium) (1%).
# (§1) The analysis was performed on an LC/MS system consisting of an Ultimate 3000 UPLC chromatograph Thermo Fisher Scientific (Waltham, MA, USA) coupled to an Impact II ultra-high resolution high mass accuracy mass spectrometer (HRAM) Q-TOF (Bruker Daltonics, Bremen, Germany) equipped with an electrospray ionization (ESI) source.
# (§2) The separation was carried out on a Phenomenex F5 Kinetex column (1.7 μm 100 Å 100 × 2.1 mm) (Phenomenex, Torrance, CA, USA) by using a mobile phase consisting of 0.1% formic acid (solvent A) and methanol (solvent B). The binary gradient was run at a flow rate of 0.2 mL/min as follows: 0–3 min isocratic at 20% B, 3–6 min from 20% to 50% B, 6–15 min isocratic at 100% B, and 15–20 min isocratic at 20% B. The column oven was adjusted to 35 °C, and the injection volume was 5 μL.
# For metabolite screening, the ESI source was set in both positive and negative mode. Semiquantitative analysis was performed in negative mode with the parameters listed in the Appendix A. Each compound was confirmed by MS/MS fragmentation with a collision energy voltage (20, 30, and 50 eV). […]
# Caco-2 cell line = test: Permeability and metabolism assay on Caco-2 cell line in Transwell plates; format: in vitro ADME, human; details: for Apical side (unchanged parent compound) / Basolateral side (unchanged parent compound) / Cells (unchanged parent compound) / Transformed (converted or metabolized): of the initial 20 μM as 100%, after 4 h; for Transformed (converted or metabolized): remainder
# Experimental: as §1, §2
# For metabolite screening, the ESI source was set in both positive and negative mode. Semiquantitative analysis was performed in negative mode with the parameters listed in the Appendix A. Each compound was confirmed by MS/MS fragmentation with a collision energy voltage (20, 30, and 50 eV). Data acquisition was performed using HyStar 3.2 SR4, Otof series 4.0 (Bruker Daltonics, Bremen, Germany) and Chromeleon Xpress (Thermo Fisher Scientific, Waltham, MA, USA) software and the data obtained were analyzed by using DataAnalysis 4.3. (Bruker Daltonics, Bremen, Germany). Commercially available standards of mulberrofuran Y (1), moracin C (2), and mulberrofuran G (3), each at 9 concentration levels ranging from 0.5–500 ng/mL, were used for calibration. A list of the 2-arylbenzofurans monitored in the samples is given in the Appendix B.
# The Caco-2 cell lines were purchased from the American Type Tissue Collection (Rockville, MD, USA). Caco-2 cells in Transwells at passage 25 were used. More information on cell culture and passaging is described in [17].
# Cells were cultured in DMEM-F12 (Dulbecco’s modified Eagles medium—Nutrient Mixture F-12) supplemented with 10% FBS (fetal bovine serum), 1% nonessential amino acids, 1% penicillin, and streptomycin, all obtained from Sigma-Aldrich (Prague, Czech Republic) in humidified air containing 5% CO2. Cells were seeded at a density of 2.6 × 10^5 cells/cm in 24-wells. The inserts were pre-filled with 50 µL of medium before seeding the cells. After seeding, the basolateral side of the chamber was filled with 1 mL of DMEM, and cells were grown in a humidified atmosphere of 5% CO2 at 37 °C. Non-adherent cells were removed by removing the medium after 6 h of incubation and replaced with 0.5 mL of fresh DMEM. The culture medium was replaced seven times a week for 21 to 25 days prior to the transport experiment.
# The filter inserts containing a monolayer of the Caco-2 cell line were washed three times with HBBS (Hanks’ Balanced Salt solution) heated to 37 °C and pH 7.4. The integrity of the cell monolayer was confirmed by measuring the transepithelial electrical resistance (TEER), which had to be at least 600 Ω. After adding 25 µM lucifer yellow, the plates were incubated at 37 °C in 5% CO2 atmosphere for 1 h with shaking (150 rpm). Using a Tecan Infinite M200 reader (Excitation/Emission wavelength 480 nm/530 nm), the plates were measured. Only plates with an integrity greater than 95% were used in the following experiment.
# Initially, 500 µL of 20 µM test substance solutions were added to the apical side of each insert and 1000 µL of HBSS were added to the basolateral side. At the same time, 50 µL were taken immediately from the apical side at the time point of 0 h. For future analysis, basolateral sampling times of 0.5, 1, 1.5, 2, 3, and 4 h were chosen while placing the plates in the incubator and using an orbital shaker (150 rpm). In this experiment, 500 µL of sample were always taken from the basolateral side and replaced with an equal amount of pure HBSS. After 4 h, the apical side was simultaneously removed, and the inserts were washed three times with HBSS. […]
# COX = test system: COX; design: method as in PMID 3097265; details: cited from earlier work
# [2] = design: method as in PMID 15636183; details: cited from earlier work
smiles,measurement,setting,value
"COc1c(O)cc2oc(-c3cc(O)cc(O)c3)cc2c1C/C=C(\C)CCC=C(C)C [Mulberrofuran Y (1), mulberrofuran Y]",IC50,[1],4.8 ± 0.19 µM
same,final concentration after 8 h of fermentation,human fecal microbiota; donor D1,25 ± 0%
same,final concentration after 8 h of fermentation,human fecal microbiota; donor D2,69 ± 8%
same,bacterial metabolites detected,human fecal microbiota,No metabolites were detected
same,became detectable on the basolateral side after,"Caco-2 cell line; incubation time, basolateral sampling 0.5-4 h",3 h
same,Apical side (unchanged parent compound),Caco-2 cell line,8.9 ± 5.9%
same,Basolateral side (unchanged parent compound),Caco-2 cell line,0 ± 0%
same,Cells (unchanged parent compound),Caco-2 cell line,85.3 ± 19.9%
same,Apical side (unchanged parent compound),Caco-2 cell line; listed as mulberrofuran Y (1),8.9 ± 5.9%
same,Basolateral side (unchanged parent compound),Caco-2 cell line; listed as mulberrofuran Y (1),no amount
same,Cells (unchanged parent compound),Caco-2 cell line; listed as mulberrofuran Y (1),85.3% and 85.3 ± 19.9%
same,Transformed (converted or metabolized),Caco-2 cell line,5.8 ± 25.8%
same,Transformed (converted or metabolized),Caco-2 cell line; listed as mulberrofuran Y (1),5.8 ± 25.8%
"CC(C)=CCc1c(O)cc(-c2cc3ccc(O)cc3o2)cc1O [Moracin C (2), moracin C]",IC50,[1],3.2 ± 0.13 µM
same,final concentration after 8 h of fermentation,human fecal microbiota; donor D1,66 ± 3%
same,final concentration after 8 h of fermentation,human fecal microbiota; donor D2,87 ± 10%
same,bacterial metabolites detected,human fecal microbiota,No metabolites were detected
same,Apical side (unchanged parent compound),Caco-2 cell line,0.7 ± 0.2%
same,Basolateral side (unchanged parent compound),Caco-2 cell line,0 ± 0%
same,Cells (unchanged parent compound),Caco-2 cell line,8.2 ± 0.5%
same,Apical side (unchanged parent compound),Caco-2 cell line; listed as moracin C (2),0.7 ± 0.2%
same,Cells (unchanged parent compound),Caco-2 cell line; listed as moracin C (2),8.2% and 8.2 ± 0.5%
same,Transformed (converted or metabolized),Caco-2 cell line,91.1 ± 0.7%
same,Transformed (converted or metabolized),Caco-2 cell line; listed as moracin C (2),91.1 ± 0.7%
"CC1=CC2c3c(O)cc(-c4cc5ccc(O)cc5o4)cc3OC3(c4ccc(O)cc4O)Oc4cc(O)ccc4C(C1)C23 (centres unmarked) [Mulberrofuran G (3), mulberrofuran G]",COX inhibitor,COX,inhibitor
same,concentration of parent compound after fermentation,"human fecal microbiota; after 8 h, initial 10 μg/mL, in 2 donors",5000 ng/mL
same,"concentration of parent compound, minimum","human fecal microbiota; at 2 h, initial 10 μg/mL, the one donor in which compound was stable",9000 ng/mL
same,concentration of parent compound after fermentation,"human fecal microbiota; at 8 h, initial 10 μg/mL, the one donor in which compound was stable",10000 ng/mL
same,bacterial metabolites detected,human fecal microbiota,No metabolites were detected
same,Apical side (unchanged parent compound),Caco-2 cell line,2.7 ± 0.5%
same,Basolateral side (unchanged parent compound),Caco-2 cell line,0 ± 0%
same,Cells (unchanged parent compound),Caco-2 cell line,14.0 ± 0.6%
same,Apical side (unchanged parent compound),Caco-2 cell line; listed as mulberrofuran G (3),2.7 ± 0.5%
same,Basolateral side (unchanged parent compound),Caco-2 cell line; listed as mulberrofuran G (3),nothing
same,Cells (unchanged parent compound),Caco-2 cell line; listed as mulberrofuran G (3),14% and 14.0 ± 0.6%
same,Transformed (converted or metabolized),Caco-2 cell line,83.3 ± 1.1%
same,Transformed (converted or metabolized),Caco-2 cell line; listed as mulberrofuran G (3),83.3 ± 1.1%
same,antimicrobial effects,[2],potent antimicrobial effects
